The numbers were not newly measured in patent US10463585B2, “Cosmetic compositions” (The Procter & Gamble Company, priority 2017, dated 2019), which cites them from elsewhere.

This series has as its system tyrosinase expression. The note with it: in vivo; background statement.

In the case of “PKEK (Artificial sequence is synthesized)”, the Tyrosinase expression entry is recorded as “reduce tyrosinase expression”.
